Residue numbers refer to the chain shown, from its start.
Experiments:
TauT^WT and variants [1] = target: T1, TauT^WT and variants (Homo sapiens, UniProt P31641, E406C); experiment: [3H]γ-aminobutyric acid uptake by TauT^WT and variants in HEK293T cells; format: cell-based; details: mutation Glu406Cys
T1 sequence (P31641 1-620 E406C): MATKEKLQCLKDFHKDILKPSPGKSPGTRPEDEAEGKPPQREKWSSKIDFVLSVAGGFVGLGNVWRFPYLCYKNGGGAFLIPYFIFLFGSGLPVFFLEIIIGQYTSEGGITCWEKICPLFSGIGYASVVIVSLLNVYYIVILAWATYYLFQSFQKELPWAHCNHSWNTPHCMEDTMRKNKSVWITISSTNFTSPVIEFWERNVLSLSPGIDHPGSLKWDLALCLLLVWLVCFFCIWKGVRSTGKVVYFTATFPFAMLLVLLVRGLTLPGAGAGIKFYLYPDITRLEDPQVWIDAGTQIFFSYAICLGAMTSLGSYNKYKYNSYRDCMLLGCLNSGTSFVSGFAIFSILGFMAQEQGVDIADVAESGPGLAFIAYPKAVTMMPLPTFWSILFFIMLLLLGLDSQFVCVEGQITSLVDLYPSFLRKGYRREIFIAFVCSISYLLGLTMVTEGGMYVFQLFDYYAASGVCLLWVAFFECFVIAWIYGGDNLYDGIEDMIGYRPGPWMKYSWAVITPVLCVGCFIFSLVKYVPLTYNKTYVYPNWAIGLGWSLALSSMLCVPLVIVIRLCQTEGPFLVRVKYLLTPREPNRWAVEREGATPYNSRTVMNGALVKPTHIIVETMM

TauT^WT and variants [2] = experiment: as above; format: cell-based, human; details: amino acid substitutions in Gly57, Phe58, Leu306
TauT^WT and variants [3] = experiment: [3H]taurine uptake; format: cell-based, human
TauT^WT and variants [4] = target: T2, TauT^WT and variants (Homo sapiens, UniProt P31641, L134C); experiment: [3H]taurine uptake; format: cell-based; details: mutation Leu134Cys
T2 sequence (P31641 1-620 L134C): T1 sequence (P31641 1-620 E406C) with L134C, C406E

TauT F58A mutant = target: T3, TauT F58A mutant (Homo sapiens, UniProt P31641, F58A); experiment: MST binding, TauT F58A; details: mean ± s.e.m., n=3
T3 sequence (P31641 1-620 F58A): T1 sequence (P31641 1-620 E406C) with F58A, C406E

TauT^WT and variants [5] = experiment: GAA uptake assay; format: cell-based, human; details: amino acid substitutions in Gly57, Phe58, Leu306
TauT^WT and variants [6] = target: T2, TauT^WT and variants; experiment: GAA uptake assay; format: cell-based; details: mutation Leu134Cys

For `NCCCC(=O)O` [GABA, γ-aminobutyric acid], the “transport activity of GABA” value (TauT^WT and variants [1]) was “significant increase in the transport activity” and the “transport activity for GABA” value (TauT^WT and variants [2]) was “decrease in transport activity”.
`NCCS(=O)(=O)O` [Taurine, taurine] was tested, and the taurine transport activity (TauT^WT and variants [3]; Asn63, Ser301, Asn333 substituted with alanine or aspartate (Na1 site)) was “complete loss of function”, the “transport activity for taurine” value (TauT^WT and variants [3]; amino acid substitutions in Gly57, Phe58, Leu306) was “decrease in transport activity” and the taurine transport activity (TauT^WT and variants [3]; mutations in Asp401 and Ser402 (Na2 site)) was “weaken the substrate transport function”. For the same compound, the “transport activity of taurine” value (TauT^WT and variants [4]) was “significantly lower transport activity” and the “Kd (MST)” value (TauT F58A mutant) was “reduced the taurine binding to varying extents”.
`[H]/N=C(/N)NCC(=O)O` [GAA, guanidinoacetate] was tested, and the “transport activity for GAA” value (TauT^WT and variants [5]) was “decrease in transport activity” and the “transport activity of GAA” value (TauT^WT and variants [6]) was “greater transport activity”.

From paper PMC12339982 (Nature Communications, 2025)
